According to US20110009351A1, “SCREENING ASSAY TO IDENTIFY CORRECTORS OF PROTEIN TRAFFICKING DEFECTS” (Traffick Therepeutics Inc., priority 2007, published 2011):
Counter-ions that a name gives are not always drawn. Like-named read-outs stand apart in the source and are kept apart here.

How the values were obtained:
ΔF508-CFTR = ΔF508-CFTR (Homo sapiens, UniProt P13569, DEL508-508); format: cell-based; parameters: which was then ligated into full length pNUT-CFTR linearized using Hpa1 and Pml1; expressed in transfected cells; conditions: for hit in screen (class letter): BHK cells
Procedure: BHK cells expressing 3HA-tagged ΔF508-CFTR between passages 5-8 were seeded in 96-well plates (Corning half area, black-sided, clear bottom) at 15,000 cells per well and incubated with culture medium for 24 h at 37° C. Each well was then treated with a different test compound (80 compounds per plate) for 24 h at 20 μM final concentration. The remaining 16 wells on each plate were used for control conditions. […] Cells were fixed in a 4% paraformaldehyde solution, washed with PBS, and blocked with PBS containing 5% fetal bovine serum (FBS) for 1 hat 4° C.
Blocking solution was replaced with 15 μl of primary antibody solution containing 1% FBS and mouse monoclonal anti-HA antibody (1:150 dilution, Sigma) in PBS. The plates were sealed and left at 4° C. overnight. After three washes with 100 μl PBS, cells were incubated for 1 h with 15 μl of secondary antibody solution containing 1% FBS and anti-mouse IgG conjugated with FITC (1:100 dilution, Sigma) in PBS. Cells were again washed three times with 100 μl of PBS and analyzed in a plate reader (Analyst™ HT96.384, Biosystems; 488 nm excitation/510 nm emission). […] The mean fluorescence of four untreated wells was used as the background signal when calculating deviations of the 80 compound-treated wells. Hits were then cherry-picked into reservoir plates and re-tested in duplicate using the same assay.
BHK cells expressing ΔF508-CFTR were incubated with test compounds (20 μM) for 24 hours at 37° C. in a 96 well format. Plasma membrane expression of ΔF508-CFTR was then assayed by immunofluorescence using a primary antibody directed against the inserted 3HA tag and a secondary antibody conjugated with a fluorophore (FITC). […] The positive compounds were selected and retested in duplicate to obtain an N of 3. At the re-screening stage, the intrinsic fluorescence of each potential hit was also measured and the fluorescent ones were not considered further.
Screening was performed using BHK cells that stably express F508-CFTR bearing three tandem haemagglutinin-epitope tags (3HA) and linker sequences in the fourth extracellular loop after amino acid 901 (Howard et al., 1995; Carlile et al., 2007; Robert et al., 2008). […] Screening was performed using the Prestwick Chemical Library of 1120 high-purity compounds.

F508del CFTR = target: T1, F508del CFTR (Homo sapiens, UniProt P13569, DEL508-508); test: YFP fluorescence quenching functional assay (iodide influx), HEK293 cells with F508del CFTR and halide sensitive YFP; format: cell-based; conditions: 10 μM, 24 h, nc = 100% pc = 69.2; for remaining activity at 10 µM: HEK293, read-out: % YFP quench
T1 construct: expressed in transfected cells; host or cells: HEK293 Griptite cells stably expressing F508del CFTR, transiently transfected with halide-sensitive eYFP
Procedure: In addition to the MDS compounds, the 1120 Prestwick Library compounds were screened. (See FIGS. 7 to 12.) Of the compounds, one qualified as a “strong” hit, 3 as “medium” hits and 57 as “weak” hits. The Z score for the assay was 0.62. The top 50 hits were further tested in a counter screen in which the halide sensitive fluorescent compound (YFP) was expressed inside cells (Table 2). After incubation with the test compounds the ability of the cells to uptake iodide was measure by decreasing YFP fluorescence. In these cells this can only occur if functional CFTR is present at the cell surface (FIG. 7). The hits were also tested for the appearance of the Band C form of CFTR. […] The functionality of the compounds was further studied by the use of Iodide efflux assays for each compound in both BHK and the more physiologically relevant CFBE cells. […] FIG. 10 is a table of results for the 15 hit compounds which summarizes many experiments. […] The results for the best 15 compounds from the Prestwick Library, or “Prestwick 15”, are shown FIGS. 8, 9 and 10.
Strongly adhesive Human […] Kidney cells stably expressing both the human macrophage scavenger receptor (HEK293 Griptite, Invitrogen) and F508del CFTR were plated in 96-well plates and transiently transfected with pcDNA3 plasmid encoding a halide sensitive variant of eYFP. After 24-48 h later cells were exposed to 10 μM test compound in triplicate and incubated for an additional 24 h. Cells were stimulated for 20 minutes with a in a buffer containing 25 μM forskolin, 45 μM IBMX and 50 μM genistein final concentration. The high content screening assay was performed using a Cellomics platform. Iodide was added robotically to a final concentration of 50 mM and the resulting decrease in fluorescence was measured. Images were taken at time 0 and stored for subsequent use when calculating a mask so that only those cells that express YFP at time 0 are measured. The quenching was detected in 15 images taken over the course of an experiment lasting 40 seconds. Each test compound was compared to the following two controls: a negative control without drugs to assess photobleaching that may occur when the same field of view is repeatedly imaged, and a positive control with cells treated with a known potentiator. Results were generated from 150-300 cells per well.

[1] = Prestwick library, initial corrector assay
[2] = Prestwick library, initial corrector assay, standard deviations above untreated controls

T1 sequence (P13569 with tags, fused parts or gaps DEL508-508): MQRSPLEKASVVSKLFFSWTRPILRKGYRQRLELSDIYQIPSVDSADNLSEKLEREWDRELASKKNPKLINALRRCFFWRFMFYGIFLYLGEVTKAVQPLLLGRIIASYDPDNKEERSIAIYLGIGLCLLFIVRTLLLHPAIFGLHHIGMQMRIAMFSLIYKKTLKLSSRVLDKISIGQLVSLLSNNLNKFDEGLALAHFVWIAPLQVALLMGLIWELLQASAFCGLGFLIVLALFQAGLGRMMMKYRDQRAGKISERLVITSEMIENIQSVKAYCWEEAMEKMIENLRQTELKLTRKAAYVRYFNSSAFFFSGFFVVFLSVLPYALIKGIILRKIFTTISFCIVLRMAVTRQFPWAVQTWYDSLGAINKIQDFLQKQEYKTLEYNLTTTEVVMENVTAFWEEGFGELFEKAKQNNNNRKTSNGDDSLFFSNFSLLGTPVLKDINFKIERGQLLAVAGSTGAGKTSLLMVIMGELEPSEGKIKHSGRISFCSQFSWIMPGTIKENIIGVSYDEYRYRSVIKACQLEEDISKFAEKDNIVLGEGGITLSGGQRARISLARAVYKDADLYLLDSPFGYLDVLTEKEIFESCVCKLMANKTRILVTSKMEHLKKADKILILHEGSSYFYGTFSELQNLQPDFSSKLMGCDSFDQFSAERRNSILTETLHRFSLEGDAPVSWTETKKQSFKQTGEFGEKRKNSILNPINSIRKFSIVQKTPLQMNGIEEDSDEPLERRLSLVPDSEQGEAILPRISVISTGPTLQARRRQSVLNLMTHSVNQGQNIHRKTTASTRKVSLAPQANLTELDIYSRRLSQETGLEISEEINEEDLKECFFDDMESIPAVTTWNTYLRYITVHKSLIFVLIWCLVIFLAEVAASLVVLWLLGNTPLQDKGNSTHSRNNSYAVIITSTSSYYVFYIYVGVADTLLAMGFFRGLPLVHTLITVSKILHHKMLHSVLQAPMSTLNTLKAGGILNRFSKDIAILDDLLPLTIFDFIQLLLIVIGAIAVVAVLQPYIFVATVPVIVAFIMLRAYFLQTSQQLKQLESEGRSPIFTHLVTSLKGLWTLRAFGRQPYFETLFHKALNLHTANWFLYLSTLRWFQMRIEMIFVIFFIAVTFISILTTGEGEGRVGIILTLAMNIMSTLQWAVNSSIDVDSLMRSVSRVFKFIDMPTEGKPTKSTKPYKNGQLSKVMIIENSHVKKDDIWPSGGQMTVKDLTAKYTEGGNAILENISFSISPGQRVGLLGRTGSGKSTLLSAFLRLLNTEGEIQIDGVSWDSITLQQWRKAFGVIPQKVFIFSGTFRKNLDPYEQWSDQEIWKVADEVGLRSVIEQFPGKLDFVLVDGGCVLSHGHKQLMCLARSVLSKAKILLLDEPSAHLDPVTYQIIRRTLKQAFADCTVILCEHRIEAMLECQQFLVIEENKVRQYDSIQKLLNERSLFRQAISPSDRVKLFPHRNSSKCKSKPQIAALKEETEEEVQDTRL
ΔF508-CFTR, sequence (P13569 with tags, fused parts or gaps DEL508-508): as above

SMILES | hit in screen (class letter) (ΔF508-CFTR; [1]) | hit in screen (score) (ΔF508-CFTR; [2]) | % YFP quench (F508del CFTR) [%] | remaining activity at 10 µM (F508del CFTR) [%] | hit in screen (score) (ΔF508-CFTR)
C[N+](C)(C)CCCCCC[N+](C)(C)C.O.O.[Br-].[Br-] [Hexamethonium dibromide dihydrate] | W (Medium and weak hits were defined as compounds giving a cell fluorescence signal that was between 2 and 3 or 1 and 2 standard deviations, respectively, above untreated control wells) | 1.1 | 98 |  | 
C[C@]12CCC(=O)C=C1CC[C@@H]1[C@@H]2[C@@H](O)C[C@@]2(C)[C@H]1CC[C@]2(O)C(=O)CO [Hydrocortisone base] | W (Medium and weak hits were defined as compounds giving a cell fluorescence signal that was between 2 and 3 or 1 and 2 standard deviations, respectively, above untreated control wells) | 1.1 | 94 |  | 
c1ccc2c(c1)OCC(C1=NCCN1)O2 (stereo not shown) [Idazoxan hydrochloride] | W (Medium and weak hits were defined as compounds giving a cell fluorescence signal that was between 2 and 3 or 1 and 2 standard deviations, respectively, above untreated control wells) | 1.0 |  | 103 | 
COC1=CC(=O)O[C@@H](/C=C/c2ccccc2)C1 [Kawain] | W (Medium and weak hits were defined as compounds giving a cell fluorescence signal that was between 2 and 3 or 1 and 2 standard deviations, respectively, above untreated control wells) | 1.1 |  | 111 | 
O=C(O)[C@H](O)[C@@H](O)[C@H](O[C@@H]1O[C@H](CO)[C@H](O)[C@H](O)[C@H]1O)[C@H](O)CO [Lactoblonic acid] | W (Medium and weak hits were defined as compounds giving a cell fluorescence signal that was between 2 and 3 or 1 and 2 standard deviations, respectively, above untreated control wells) | 1.2 | 78 |  | 
Cc1oncc1C(=O)Nc1ccc(C(F)(F)F)cc1 [Leflunomide] | W (Medium and weak hits were defined as compounds giving a cell fluorescence signal that was between 2 and 3 or 1 and 2 standard deviations, respectively, above untreated control wells) | 1.0 |  | 107 | 
CN(C)CCOC(=O)COc1ccc(Cl)cc1.Cl [Meciofenoxate hydrochloride] | W (Medium and weak hits were defined as compounds giving a cell fluorescence signal that was between 2 and 3 or 1 and 2 standard deviations, respectively, above untreated control wells) | 1.1 | 877 |  | 
O=C([O-])c1ccccc1-c1c2cc(Br)c(=O)cc-2oc2[c]([Hg+])c([O-])c(Br)cc12.[Na+].[Na+].[OH-] [Merbromin] | S (strong hits were initially identified as those compounds giving a cell fluorescence signal that was ≧3 standard deviations (SD) above untreated control wells) | 3.6 | 107 |  | 
CC[C@@H](CO)NC(=O)[C@@H]1C=C2c3cccc4[nH]cc(c34)C[C@H]2N(C)C1 [Methylergometrine maleate] | W (Medium and weak hits were defined as compounds giving a cell fluorescence signal that was between 2 and 3 or 1 and 2 standard deviations, respectively, above untreated control wells) | 1.1 |  | 94 | 
CC(C)(C(=O)c1cccnc1)c1cccnc1 [Metyrapone] | W (Medium and weak hits were defined as compounds giving a cell fluorescence signal that was between 2 and 3 or 1 and 2 standard deviations, respectively, above untreated control wells) | 1.4 |  | 98 | 
CCOc1ccc2ccccc2c1C(=O)N[C@@H]1C(=O)N2[C@@H]1SC(C)(C)[C@@H]2C(=O)O [Nafcillin sodium salt monohydrate] |  |  |  | 97 | W 1.2
CCN(CC)CC#CCOC(=O)C(O)(c1ccccc1)C1CCCCC1 (stereo not shown) [Oxybutynin chloride] | W (Medium and weak hits were defined as compounds giving a cell fluorescence signal that was between 2 and 3 or 1 and 2 standard deviations, respectively, above untreated control wells) | 1.2 |  | 83 | 
CCCCOc1ccc(OCCCN2CCOCC2)cc1 [Pramoxine hydrochloride] | W (Medium and weak hits were defined as compounds giving a cell fluorescence signal that was between 2 and 3 or 1 and 2 standard deviations, respectively, above untreated control wells) | 1.2 |  | 89 | 
Cl.OC(CCN1CCCC1)(c1ccccc1)C1CCCCC1 (stereo not shown) [Procycildine hydrochloride] | W (Medium and weak hits were defined as compounds giving a cell fluorescence signal that was between 2 and 3 or 1 and 2 standard deviations, respectively, above untreated control wells) | 1.1 | 92 |  | 
CC[C@H]1OC(=O)[C@H](C)[C@@H](O[C@H]2C[C@@](C)(OC)[C@@H](O)[C@H](C)O2)[C@H](C)[C@@H](O[C@@H]2O[C@H](C)C[C@H](N(C)C)[C@H]2O)[C@](C)(O)C[C@@H](C)/C(=N\OCOCCOC)[C@H](C)[C@@H](O)[C@]1(C)O [Roxithromycin] | W (Medium and weak hits were defined as compounds giving a cell fluorescence signal that was between 2 and 3 or 1 and 2 standard deviations, respectively, above untreated control wells) | 1.2 |  | 100 | 
CC(C)Cc1ccc([C@H](C)C(=O)O)cc1 [S-(+)-Ibuorofen] |  | 1.1 | 91 |  | 
CC(C)(C)NCC(O)c1ccc(O)c(CO)c1 (stereo not shown) [Salbutamol] | W (Medium and weak hits were defined as compounds giving a cell fluorescence signal that was between 2 and 3 or 1 and 2 standard deviations, respectively, above untreated control wells) | 1.0 |  | 97 | 
Cc1scc2c1N(C(=O)CN1CCN(C)CC1)c1ccccc1NC2=O [Telenzepine dihydrochloride] | W (Medium and weak hits were defined as compounds giving a cell fluorescence signal that was between 2 and 3 or 1 and 2 standard deviations, respectively, above untreated control wells) | 1.3 |  | 85 | 
O=C1CCC(N2C(=O)c3ccccc3C2=O)C(=O)N1 (stereo not shown) [Thalidomide] | M (Medium and weak hits were defined as compounds giving a cell fluorescence signal that was between 2 and 3 or 1 and 2 standard deviations, respectively, above untreated control wells) | 2.0 |  | 92 | 
c1ccc2[nH]c(-c3cscn3)nc2c1 [Tiabendazole] | W (Medium and weak hits were defined as compounds giving a cell fluorescence signal that was between 2 and 3 or 1 and 2 standard deviations, respectively, above untreated control wells) | 1.0 |  | 907 | 
